Data taken from paper PMC9841527 (Journal of Medicinal Chemistry, 2022).

Experiments:
CamA [1] = molecular target: T1, CamA (Clostridioides difficile, UniProt Q183J3); assay: Isothermal titration calorimetry; assay type: binding
T1 sequence (Q183J3 1-577): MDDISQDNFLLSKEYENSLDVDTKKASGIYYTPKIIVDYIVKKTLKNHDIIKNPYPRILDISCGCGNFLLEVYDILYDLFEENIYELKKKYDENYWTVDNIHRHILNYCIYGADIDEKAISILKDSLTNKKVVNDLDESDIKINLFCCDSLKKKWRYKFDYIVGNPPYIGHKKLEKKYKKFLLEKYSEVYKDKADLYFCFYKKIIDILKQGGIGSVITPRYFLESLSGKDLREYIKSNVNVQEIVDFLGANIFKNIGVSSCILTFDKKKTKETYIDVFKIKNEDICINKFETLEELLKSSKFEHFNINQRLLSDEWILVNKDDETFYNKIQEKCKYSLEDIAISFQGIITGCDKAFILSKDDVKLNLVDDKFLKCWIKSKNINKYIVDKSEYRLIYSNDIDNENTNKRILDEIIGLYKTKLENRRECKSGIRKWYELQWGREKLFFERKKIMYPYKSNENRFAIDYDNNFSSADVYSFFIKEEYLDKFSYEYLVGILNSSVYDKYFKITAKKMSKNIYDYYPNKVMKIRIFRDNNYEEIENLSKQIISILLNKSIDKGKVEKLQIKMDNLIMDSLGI

CamA [2] = molecular target: T1, CamA; assay type: biochemical
[3] = molecular target: T2, A1 adenosine receptor (A1AR) (Homo sapiens, UniProt P30542); assay: A1AR agonist radioligand binding assay; conditions: compound 10 μM, [3H]CCPA 1 nM, transfected CHO cell membranes
T2 sequence (P30542 1-326): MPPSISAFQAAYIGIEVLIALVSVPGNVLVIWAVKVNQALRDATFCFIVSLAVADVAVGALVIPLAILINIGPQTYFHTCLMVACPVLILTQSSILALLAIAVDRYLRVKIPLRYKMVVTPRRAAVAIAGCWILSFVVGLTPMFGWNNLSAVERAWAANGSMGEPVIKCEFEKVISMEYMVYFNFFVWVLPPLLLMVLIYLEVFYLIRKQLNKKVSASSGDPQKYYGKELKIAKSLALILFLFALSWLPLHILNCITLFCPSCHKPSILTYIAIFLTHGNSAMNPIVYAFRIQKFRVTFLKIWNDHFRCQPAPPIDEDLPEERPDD

DOT1L = DOT1L (Homo sapiens, UniProt Q8TEK3); assay: Selectivity assay, DOT1L; assay type: biochemical; conditions: compound 10 μM, 3H-SAM 1 μM
G9a = molecular target: T3, G9a (Homo sapiens, UniProt Q96KQ7); assay: Selectivity assay, G9a; assay type: biochemical; conditions: compound 10 μM, 3H-SAM 1 μM
T3 sequence (Q96KQ7 1-1210): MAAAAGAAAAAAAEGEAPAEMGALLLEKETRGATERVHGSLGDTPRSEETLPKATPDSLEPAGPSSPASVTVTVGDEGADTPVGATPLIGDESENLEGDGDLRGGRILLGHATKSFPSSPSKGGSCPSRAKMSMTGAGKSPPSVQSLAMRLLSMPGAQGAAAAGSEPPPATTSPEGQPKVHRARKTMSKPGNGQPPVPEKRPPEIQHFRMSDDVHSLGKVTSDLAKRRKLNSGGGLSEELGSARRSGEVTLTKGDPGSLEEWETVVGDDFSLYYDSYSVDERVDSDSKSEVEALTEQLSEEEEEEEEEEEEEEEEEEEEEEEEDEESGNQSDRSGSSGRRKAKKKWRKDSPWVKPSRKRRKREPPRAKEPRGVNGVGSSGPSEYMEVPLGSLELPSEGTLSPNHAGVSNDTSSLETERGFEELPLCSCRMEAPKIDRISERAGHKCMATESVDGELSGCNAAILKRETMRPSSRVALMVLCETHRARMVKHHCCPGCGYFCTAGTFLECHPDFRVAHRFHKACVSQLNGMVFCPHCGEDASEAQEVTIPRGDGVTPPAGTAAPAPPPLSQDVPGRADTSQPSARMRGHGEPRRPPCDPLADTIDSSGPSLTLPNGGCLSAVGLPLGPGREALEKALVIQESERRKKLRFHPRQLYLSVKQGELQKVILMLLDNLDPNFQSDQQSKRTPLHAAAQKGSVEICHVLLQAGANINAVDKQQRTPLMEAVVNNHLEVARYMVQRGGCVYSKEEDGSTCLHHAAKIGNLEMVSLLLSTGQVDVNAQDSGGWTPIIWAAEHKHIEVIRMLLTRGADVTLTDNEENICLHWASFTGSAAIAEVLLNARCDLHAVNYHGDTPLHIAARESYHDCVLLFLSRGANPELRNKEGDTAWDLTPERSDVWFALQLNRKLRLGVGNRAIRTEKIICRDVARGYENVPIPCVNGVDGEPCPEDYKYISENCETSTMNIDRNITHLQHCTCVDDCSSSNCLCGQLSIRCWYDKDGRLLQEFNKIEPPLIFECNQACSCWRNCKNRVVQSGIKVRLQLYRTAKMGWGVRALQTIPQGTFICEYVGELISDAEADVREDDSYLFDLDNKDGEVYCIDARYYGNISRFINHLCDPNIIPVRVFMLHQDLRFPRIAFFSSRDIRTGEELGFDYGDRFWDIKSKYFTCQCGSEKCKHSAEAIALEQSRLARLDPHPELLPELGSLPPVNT

PRMT1 = PRMT1 (Homo sapiens, UniProt Q99873); assay: Selectivity assay, PRMT1; assay type: biochemical; conditions: compound 10 μM, 3H-SAM 1 μM
MettL3-MettL14 = MettL3-MettL14 (Homo sapiens, UniProt Q86U44); assay: Selectivity assay, MettL3-MettL14; assay type: biochemical; conditions: [I] = 10 μM, [SAM] = 20 μM, 5 mM NaCl, or CamA conditions
CcrM = CcrM (Caulobacter vibrioides, UniProt P0CAW2); assay type: biochemical, Caulobacter crescentus
Dnmt3a-Dnmt3L = Dnmt3a-Dnmt3L (Mus musculus, UniProt O88508); assay type: biochemical
PCIF1 = PCIF1 (Homo sapiens, UniProt Q9H4Z3); assay type: biochemical
Dam = molecular target: T4, Dam (Escherichia coli, UniProt P0AEE8); assay type: biochemical
T4 sequence (P0AEE8 1-278): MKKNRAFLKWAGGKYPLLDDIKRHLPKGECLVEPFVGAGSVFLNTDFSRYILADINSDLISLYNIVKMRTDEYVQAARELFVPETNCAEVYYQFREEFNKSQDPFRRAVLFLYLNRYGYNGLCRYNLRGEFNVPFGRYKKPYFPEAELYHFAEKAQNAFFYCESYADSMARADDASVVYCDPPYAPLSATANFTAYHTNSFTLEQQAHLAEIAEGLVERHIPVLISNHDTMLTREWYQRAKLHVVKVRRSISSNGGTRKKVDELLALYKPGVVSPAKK

Sequence of CcrM (P0CAW2 whole entry): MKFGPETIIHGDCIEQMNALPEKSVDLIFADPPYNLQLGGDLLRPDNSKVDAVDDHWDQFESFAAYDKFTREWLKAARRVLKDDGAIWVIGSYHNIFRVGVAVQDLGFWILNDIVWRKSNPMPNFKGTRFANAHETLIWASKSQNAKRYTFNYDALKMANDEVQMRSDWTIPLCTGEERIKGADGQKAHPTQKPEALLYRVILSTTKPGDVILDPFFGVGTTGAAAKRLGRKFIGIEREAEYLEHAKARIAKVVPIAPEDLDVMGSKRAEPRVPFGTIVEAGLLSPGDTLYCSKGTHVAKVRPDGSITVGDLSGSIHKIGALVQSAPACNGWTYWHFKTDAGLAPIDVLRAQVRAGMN
Sequence of PRMT1 (Q99873 whole entry): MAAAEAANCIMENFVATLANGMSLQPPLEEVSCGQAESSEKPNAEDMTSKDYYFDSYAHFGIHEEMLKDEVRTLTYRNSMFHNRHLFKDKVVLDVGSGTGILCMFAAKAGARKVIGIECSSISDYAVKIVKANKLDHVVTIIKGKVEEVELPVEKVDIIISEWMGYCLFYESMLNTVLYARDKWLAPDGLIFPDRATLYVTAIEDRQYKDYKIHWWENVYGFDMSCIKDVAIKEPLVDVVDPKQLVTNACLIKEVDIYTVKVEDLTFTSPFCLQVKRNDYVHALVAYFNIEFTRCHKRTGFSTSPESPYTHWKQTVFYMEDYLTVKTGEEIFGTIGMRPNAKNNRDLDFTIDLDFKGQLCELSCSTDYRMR
Sequence of MettL3-MettL14 (Q86U44 whole entry): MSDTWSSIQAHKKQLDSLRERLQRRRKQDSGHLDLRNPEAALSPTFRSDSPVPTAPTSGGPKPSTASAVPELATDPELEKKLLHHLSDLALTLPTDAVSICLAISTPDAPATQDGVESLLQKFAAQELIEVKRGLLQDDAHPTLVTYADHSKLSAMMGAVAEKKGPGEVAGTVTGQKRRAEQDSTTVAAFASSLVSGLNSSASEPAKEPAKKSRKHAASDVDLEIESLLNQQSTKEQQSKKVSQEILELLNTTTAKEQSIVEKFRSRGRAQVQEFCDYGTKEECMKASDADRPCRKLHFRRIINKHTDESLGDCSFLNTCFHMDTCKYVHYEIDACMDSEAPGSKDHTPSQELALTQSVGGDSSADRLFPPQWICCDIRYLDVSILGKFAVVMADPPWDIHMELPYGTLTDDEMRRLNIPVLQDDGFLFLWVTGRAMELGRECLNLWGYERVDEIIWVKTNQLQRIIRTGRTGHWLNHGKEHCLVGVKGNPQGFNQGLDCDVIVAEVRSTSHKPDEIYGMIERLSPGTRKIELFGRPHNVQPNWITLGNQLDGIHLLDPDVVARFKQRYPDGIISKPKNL
Sequence of MettL3-MettL14 (Q9HCE5 whole entry partner): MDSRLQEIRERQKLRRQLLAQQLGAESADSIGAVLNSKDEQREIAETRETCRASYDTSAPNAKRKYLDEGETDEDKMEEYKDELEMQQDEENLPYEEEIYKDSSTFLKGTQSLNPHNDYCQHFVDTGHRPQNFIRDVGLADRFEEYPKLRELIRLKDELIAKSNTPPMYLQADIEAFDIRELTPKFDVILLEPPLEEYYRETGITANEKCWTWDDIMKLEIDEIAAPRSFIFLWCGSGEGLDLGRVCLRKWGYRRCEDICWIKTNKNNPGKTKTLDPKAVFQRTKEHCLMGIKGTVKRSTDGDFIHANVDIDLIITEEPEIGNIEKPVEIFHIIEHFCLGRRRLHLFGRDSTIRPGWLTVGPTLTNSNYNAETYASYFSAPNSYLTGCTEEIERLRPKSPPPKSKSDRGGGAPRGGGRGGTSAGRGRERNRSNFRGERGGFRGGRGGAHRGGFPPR
Sequence of PCIF1 (Q9H4Z3 whole entry): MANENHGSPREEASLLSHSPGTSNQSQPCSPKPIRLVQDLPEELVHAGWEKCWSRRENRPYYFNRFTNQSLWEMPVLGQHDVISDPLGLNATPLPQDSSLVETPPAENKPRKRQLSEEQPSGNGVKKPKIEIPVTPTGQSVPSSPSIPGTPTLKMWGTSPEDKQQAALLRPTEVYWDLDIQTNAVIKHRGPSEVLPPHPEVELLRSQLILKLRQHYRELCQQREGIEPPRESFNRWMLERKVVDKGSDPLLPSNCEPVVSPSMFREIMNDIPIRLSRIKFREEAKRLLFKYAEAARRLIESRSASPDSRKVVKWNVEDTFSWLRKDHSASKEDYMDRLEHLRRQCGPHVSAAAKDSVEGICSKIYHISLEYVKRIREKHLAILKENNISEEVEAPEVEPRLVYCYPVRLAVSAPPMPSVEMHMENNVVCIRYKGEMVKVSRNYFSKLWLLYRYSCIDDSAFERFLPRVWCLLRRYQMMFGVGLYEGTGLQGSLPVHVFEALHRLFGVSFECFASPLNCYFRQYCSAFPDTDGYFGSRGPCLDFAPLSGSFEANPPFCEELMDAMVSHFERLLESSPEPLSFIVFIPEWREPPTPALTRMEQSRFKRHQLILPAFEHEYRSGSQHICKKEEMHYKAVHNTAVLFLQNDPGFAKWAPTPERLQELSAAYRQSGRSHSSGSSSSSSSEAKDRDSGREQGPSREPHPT
Sequence of DOT1L (Q8TEK3 whole entry): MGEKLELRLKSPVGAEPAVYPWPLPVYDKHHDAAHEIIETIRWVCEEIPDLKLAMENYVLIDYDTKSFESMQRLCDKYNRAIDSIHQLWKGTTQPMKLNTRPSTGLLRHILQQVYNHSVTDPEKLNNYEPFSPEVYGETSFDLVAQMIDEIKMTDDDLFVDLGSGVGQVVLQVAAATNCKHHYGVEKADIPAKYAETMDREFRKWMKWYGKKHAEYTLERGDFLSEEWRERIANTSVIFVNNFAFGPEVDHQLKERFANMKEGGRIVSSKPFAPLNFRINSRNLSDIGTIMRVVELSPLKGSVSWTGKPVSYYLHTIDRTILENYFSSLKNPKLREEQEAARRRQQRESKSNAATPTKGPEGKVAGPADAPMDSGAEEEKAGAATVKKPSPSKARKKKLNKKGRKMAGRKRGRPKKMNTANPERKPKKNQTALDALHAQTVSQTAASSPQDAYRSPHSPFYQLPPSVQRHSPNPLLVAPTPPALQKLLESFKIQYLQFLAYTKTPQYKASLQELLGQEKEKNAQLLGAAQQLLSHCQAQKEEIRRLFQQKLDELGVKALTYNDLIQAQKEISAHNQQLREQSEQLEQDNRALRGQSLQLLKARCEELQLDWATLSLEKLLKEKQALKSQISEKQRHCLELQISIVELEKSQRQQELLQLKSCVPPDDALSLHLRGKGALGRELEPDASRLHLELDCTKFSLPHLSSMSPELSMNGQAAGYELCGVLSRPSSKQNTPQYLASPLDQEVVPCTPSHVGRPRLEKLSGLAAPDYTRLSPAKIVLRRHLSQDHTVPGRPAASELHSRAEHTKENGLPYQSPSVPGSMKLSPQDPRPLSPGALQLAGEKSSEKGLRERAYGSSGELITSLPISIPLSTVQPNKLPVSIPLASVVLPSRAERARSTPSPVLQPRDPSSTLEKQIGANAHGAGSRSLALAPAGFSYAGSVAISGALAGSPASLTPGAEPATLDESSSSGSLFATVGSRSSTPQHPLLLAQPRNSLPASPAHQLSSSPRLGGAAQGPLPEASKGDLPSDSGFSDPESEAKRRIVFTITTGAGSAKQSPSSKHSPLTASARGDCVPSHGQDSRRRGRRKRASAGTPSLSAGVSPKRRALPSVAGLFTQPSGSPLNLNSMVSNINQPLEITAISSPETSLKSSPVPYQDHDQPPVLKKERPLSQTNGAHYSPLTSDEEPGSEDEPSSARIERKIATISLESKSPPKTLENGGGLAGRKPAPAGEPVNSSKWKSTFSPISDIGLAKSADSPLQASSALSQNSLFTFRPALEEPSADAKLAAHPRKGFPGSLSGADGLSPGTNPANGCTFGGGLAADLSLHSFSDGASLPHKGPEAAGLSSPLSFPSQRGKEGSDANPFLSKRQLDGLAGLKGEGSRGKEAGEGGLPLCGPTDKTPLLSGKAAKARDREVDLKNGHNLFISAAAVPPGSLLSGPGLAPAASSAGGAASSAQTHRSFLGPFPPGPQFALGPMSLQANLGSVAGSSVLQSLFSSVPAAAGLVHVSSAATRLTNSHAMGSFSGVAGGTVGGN

For “5′-methylthioadenosine [MTA, reference compound]”, the “enhanced binding, fold” value (CamA [1]; compared to sinefungin) was ~2 × and the “stronger binding, fold” value (CamA [1]; than adenosine) was > 7 ×.
For `OC[C@H]1O[C@@H](n2cnc3c(NCc4ccc(O)cc4)ncnc32)[C@H](O)[C@@H]1O` [Compound 3], the “improved IC50, fold” value (CamA [2]) was ~2 × and the “tighter binding in KD, fold” value (CamA [1]; compared to compound 2) was 2.6 ×.
`OC[C@H]1O[C@@H](n2cnc3c(NCCCc4ccccc4)ncnc32)[C@H](O)[C@@H]1O` [Compound 14, (2R,3S,4R,5R)-2-(Hydroxymethyl)-5-(6-((3-phenylpropyl)amino)-9H-purin-9-yl)tetrahydrofuran-3,4-diol] was tested, and the “lower IC50 value, fold” value (CamA [2]) was ~21 × and the “lower KD value, fold” value (CamA [1]; compared to compound 1) was ~26 ×.
For `Nc1ccc(CCCNc2ncnc3c2ncn3[C@@H]2O[C@H](CO)[C@@H](O)[C@H]2O)cc1` [Compound 15, (2R,3R,4S,5R)-2-(6-((3-(4-Aminophenyl)propyl)amino)-9H-purin-9-yl)-5-(hydroxymethyl)tetrahydrofuran-3,4-diol], the “enhanced binding, fold” value (CamA [1]; compared to 2 and 9) was 9–12 ×.
With `OC[C@H]1O[C@@H](n2cnc3c(NCCCCCCc4ccccc4)ncnc32)[C@H](O)[C@@H]1O` [Compound 21, (2R,3S,4R,5R)-2-(Hydroxymethyl)-5-(6-((6-phenylhexyl)amino)-9H-purin-9-yl)tetrahydrofuran-3,4-diol] the “relative inhibition of CamA activity” value (CamA [2]) was “decreased the inhibition potency”.
`CC(C)(C)OC(=O)NCCC1CCN(c2ncnc3c2ncn3[C@@H]2O[C@H](CO)[C@@H](O)[C@H]2O)CC1` [Compound 40, tert-Butyl-(2-(1-(9-((2R,3R,4S,5R)-3,4-dihydroxy-5-(hydroxymethyl)tetrahydrofuran-2-yl)-9H-purin-6-yl)piperidin-4-yl)ethyl)carbamate] was tested, and the CamA inhibition (CamA [2]) was “loss of inhibition” and the “relative inhibition of CamA activity” value (CamA [2]) was “loss of inhibition”.
In the case of `CC(C)(C)OC(=O)N1CCC2(CCN(c3ncnc4c3ncn4[C@@H]3O[C@H](CO)[C@@H](O)[C@H]3O)CC2)C1` [Compound 41, tert-Butyl-8-(9-((2R,3R,4S,5R)-3,4-dihydroxy-5-(hydroxymethyl)tetrahydrofuran-2-yl)-9H-purin-6-yl)-2,8-diazaspiro[4.5]decane-2-carboxylate], the CamA inhibition (CamA [2]) is reported as “loss of inhibition” and the “relative inhibition of CamA activity” value (CamA [2]) is reported as “loss of inhibition”.
With `OC[C@H]1O[C@@H](n2cnc3c(NCCCC4CCNCC4)ncnc32)[C@H](O)[C@@H]1O` [Compound 42, (2R,3S,4R,5R)-2-(Hydroxymethyl)-5-(6-((3-(piperidin-4-yl)propyl)amino)-9H-purin-9-yl)tetrahydrofuran-3,4-diol] the “lower potency in inhibiting CamA, fold” value (CamA [2]) was ~10 fold.
In the case of `OC[C@H]1O[C@@H](n2cnc3c(NC4CCCC4)ncnc32)[C@H](O)[C@@H]1O` [N^6-cyclopentyladenosine, reference compound], the “inhibition of control radioligand specific binding, A1AR” value [3] is reported as “completely abolished radioligand binding”.
`Nc1ncnc2c1ncn2[C@@H]1O[C@H](CSCC[C@H](N)C(=O)O)[C@@H](O)[C@H]1O` [SAH, S-adenosyl-L-homocysteine, reference compound] was tested, and the “inhibition of DOT1L” value (DOT1L) was “exhibited measurable inhibition”, the “inhibition of G9a” value (G9a) was “exhibited measurable inhibition” and the “inhibition of PRMT1” value (PRMT1) was “exhibited measurable inhibition”.
For `CC(C)N(CCCNC(=O)Nc1ccc(C(C)(C)C)cc1)C[C@H]1O[C@@H](n2cc(Br)c3c(N)ncnc32)[C@H](O)[C@@H]1O` [SGC0946, reference compound], the “inhibition of CamA activity” value (CamA [2]) was “inhibits CamA activity completely”, the “stronger inhibition, fold in IC50” value (CamA [2]) was ~9 × and the “improved binding, fold in KD” value (CamA [1]; vs EPZ004777) was ~3 ×.
In the case of `O=C(NCc1cn2cc(CNCC3CCCCC3)ccc2n1)c1cc(=O)n2ccccc2n1` [STM2457, reference compound], the “effect on CamA activity” value (CamA [2]) is reported as “had no effect on CamA activity” and the “inhibition of MettL3-MettL14” value (MettL3-MettL14) is reported as “inhibited”.
`Nc1ncnc2c1ncn2[C@@H]1O[C@H](C[C@@H](N)CC[C@H](N)C(=O)O)[C@@H](O)[C@H]1O` [sinefungin, reference compound] was tested, and the “inhibition of CcrM” value (CcrM) was “showed measurable inhibition”, the “inhibition of Dnmt3a-Dnmt3L” value (Dnmt3a-Dnmt3L) was “showed measurable inhibition” and the “effect on CamA activity” value (CamA [2]) was “inhibiting CamA”. For the same compound, the “inhibition of PCIF1” value (PCIF1) was “showed measurable inhibition” and the “inhibition of Dam” value (Dam) was “showed measurable inhibition”.
